Among the test systems are DU-145 prostate; HCC-2998 colon; M14 melanoma; MOLT-4 leukemia; NCI-H522 lung; OVCAR-8 ovarian; SW-620 colon; T-47D breast.
Common to all, as to experiment: inhibition of tumour cell growth, NCI panel, 48 h

Structures are written as SMILES.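 Five concentrations, 48 hours, 96-well plates. The concentration for 50% growth inhibition is given as GI50. TGI is the concentration that stops growth completely.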

As to `Nc1ncc(-c2ccc3ncnc(N4CCc5cc(F)c(Cl)cc54)c3c2)cc1C(F)(F)F`, the GI50 in the test on DU-145 prostate is 1.8 µM; in the test with HCC-2998 colon, 2.13 µM; in the test on M14 melanoma, 2.74 µM; in the test on MOLT-4 leukemia it was 2.13 µM; with NCI-H522 lung, 2.01 µM; in the test on OVCAR-8 ovarian, 2.34 µM. Also, the GI50 is 1.95 µM in the test with SW-620 colon and 1.07 µM in the test on T-47D breast. The TGI with DU-145 prostate, in the test with HCC-2998 colon, with M14 melanoma, in the test with MOLT-4 leukemia, in the test with NCI-H522 lung and with OVCAR-8 ovarian was more than 100 µM throughout. For the same compound, the TGI with SW-620 colon and in the test on T-47D breast was more than 100 µM throughout.

With `O=C1c2ccccc2-c2c1c1ccc3ccccc3c1n2-c1ccccc1`, the GI50 with DU-145 prostate is 39 µM; in the test with HCC-2998 colon, 30.5 µM; with M14 melanoma, 94.1 µM; in the test on MOLT-4 leukemia, more than 100 µM; with NCI-H522 lung it was 53.1 µM; in the test on OVCAR-8 ovarian it was 23 µM. The GI50 with SW-620 colon was 59.5 µM; in the test with T-47D breast, 12.7 µM. Besides, the TGI was more than 100 µM with DU-145 prostate; 94.4 µM in the test on HCC-2998 colon; more than 100 µM with M14 melanoma; more than 100 µM in the test on MOLT-4 leukemia; more than 100 µM in the test on NCI-H522 lung; 54.7 µM in the test with OVCAR-8 ovarian. Further, the results for the TGI in the test with SW-620 colon and in the test on T-47D breast were more than 100 µM and 41.5 µM, respectively.

Consider `NCCNc1nc2ccc(F)cc2c2c(=O)c3cc(F)ccc3sc12`, for which the GI50 is 1.9 µM in the test with DU-145 prostate; 1.77 µM with HCC-2998 colon; 2.77 µM in the test on M14 melanoma; 1.94 µM with MOLT-4 leukemia; 1.73 µM in the test on NCI-H522 lung; 2.06 µM in the test on OVCAR-8 ovarian. Moreover, the GI50 in the test with SW-620 colon is 1.56 µM; in the test on T-47D breast, 1.72 µM. Also, the TGI stood at 3.39 µM in the test with DU-145 prostate; 3.44 µM with HCC-2998 colon; 8.65 µM in the test with M14 melanoma; 3.92 µM in the test with MOLT-4 leukemia; 3.38 µM in the test on NCI-H522 lung; 4.6 µM with OVCAR-8 ovarian. Also, the TGI was 3.09 µM with SW-620 colon and 3.72 µM with T-47D breast.

`Fc1cccc(-c2nc(-c3c[nH]c4ncccc34)cs2)c1`: the GI50 is more than 100 µM with DU-145 prostate; more than 100 µM in the test on HCC-2998 colon; 5.61 µM in the test on M14 melanoma; more than 100 µM with MOLT-4 leukemia; more than 100 µM with NCI-H522 lung; 42.4 µM in the test with OVCAR-8 ovarian. The GI50 was more than 100 µM in the test on SW-620 colon and 2.34 µM in the test with T-47D breast. Moreover, the TGI in the test on DU-145 prostate, in the test on HCC-2998 colon, in the test with M14 melanoma, with MOLT-4 leukemia, in the test with NCI-H522 lung and in the test with OVCAR-8 ovarian was more than 100 µM throughout. For the same compound, the TGI with SW-620 colon and in the test on T-47D breast was more than 100 µM in each case.

On to `CN1CCN(c2ccc(NC(=O)c3cncnc3Nc3ccc4c(ccn4Cc4cccc(F)c4)c3)cc2)CC1`, for which the GI50 is 3.82 µM in the test on DU-145 prostate; 3.03 µM in the test on HCC-2998 colon; 0.616 µM in the test on M14 melanoma; 0.922 µM in the test on MOLT-4 leukemia; 1.63 µM in the test with NCI-H522 lung; 3.8 µM with OVCAR-8 ovarian. The GI50 was 0.828 µM in the test on SW-620 colon and 2.03 µM in the test on T-47D breast. For the same compound, the TGI in the test with DU-145 prostate was 7.87 µM; with HCC-2998 colon, 7.4 µM; with M14 melanoma it was 1.22 µM; in the test on MOLT-4 leukemia it was 3.14 µM; in the test on NCI-H522 lung, 6.59 µM; in the test with OVCAR-8 ovarian, 10.6 µM. Further, the TGI is 2.35 µM in the test with SW-620 colon and 8.15 µM with T-47D breast.

Regarding `COc1ccc(C(=O)c2cc(C)c(OC)c(C)c2)c(OC)c1OC(=O)C(Cl)Cl`, the GI50 in the test with DU-145 prostate is 0.0377 µM; with HCC-2998 colon, 0.178 µM; in the test on M14 melanoma, 0.0229 µM; in the test on MOLT-4 leukemia it was 0.0436 µM; in the test on NCI-H522 lung, 0.0286 µM; in the test on OVCAR-8 ovarian it was 0.0456 µM. For the same compound, the GI50 with SW-620 colon was 0.0377 µM; in the test with T-47D breast it was 6.37 µM. The TGI is 4.8 µM in the test with DU-145 prostate; more than 23.6 µM in the test with HCC-2998 colon; more than 100 µM in the test on M14 melanoma; more than 100 µM in the test with MOLT-4 leukemia; 1.2 µM in the test on NCI-H522 lung; more than 100 µM with OVCAR-8 ovarian. Further, the TGI in the test on SW-620 colon and in the test on T-47D breast was more than 100 µM throughout.

As for `CC(=O)OCCC/C(=C/c1cc2ccccc2c2ccccc12)[N+](=O)[O-]`, the GI50 with DU-145 prostate was 1.26 µM; in the test on HCC-2998 colon, 1.64 µM; with M14 melanoma, 1.56 µM; in the test on MOLT-4 leukemia it was 2.86 µM; in the test with NCI-H522 lung it was 0.252 µM; with OVCAR-8 ovarian, 1.61 µM. Besides, the GI50 in the test on SW-620 colon is 1.49 µM; with T-47D breast, 0.384 µM. Also, the TGI with DU-145 prostate is 2.51 µM; with HCC-2998 colon it was 3 µM; in the test on M14 melanoma, 2.9 µM; in the test with MOLT-4 leukemia, more than 23 µM; with NCI-H522 lung it was 0.981 µM; in the test with OVCAR-8 ovarian, 3.21 µM. Also, the TGI turned out to be 2.81 µM with SW-620 colon and 1.87 µM with T-47D breast.

In the case of `COc1ncc(-c2ccc3ncnc(Nc4cccc(Cl)c4)c3c2)cc1NS(C)(=O)=O`, the GI50 was 0.756 µM in the test on DU-145 prostate; 1.82 µM in the test with HCC-2998 colon; 2.81 µM in the test on M14 melanoma; 1.49 µM with MOLT-4 leukemia; 2.14 µM in the test with NCI-H522 lung; 3.75 µM in the test on OVCAR-8 ovarian. Besides, the GI50 was 3.22 µM with SW-620 colon and 0.169 µM in the test with T-47D breast. For the same compound, the TGI with DU-145 prostate was 21.1 µM; in the test with HCC-2998 colon, 14.8 µM; with M14 melanoma it was 19.2 µM; in the test with MOLT-4 leukemia, 5.21 µM; in the test with NCI-H522 lung it was 18.4 µM; in the test with OVCAR-8 ovarian, more than 100 µM. Also, the TGI with SW-620 colon was determined as 17.7 µM; with T-47D breast it was 1.33 µM.

Take `C=C(C)C1Cc2cc(C(C)=O)ccc2O1` (stereo not given): the TGI in the test with DU-145 prostate, in the test on HCC-2998 colon, with M14 melanoma, with MOLT-4 leukemia, in the test on NCI-H522 lung and in the test with OVCAR-8 ovarian was more than 100 µM throughout. Moreover, the TGI in the test on SW-620 colon and in the test on T-47D breast was more than 100 µM each time.

For `CC(NNC(=S)N1CCN(c2ccccn2)CC1)c1cccc[n+]1[O-]` (stereo not given), the TGI was more than 100 µM in the test with DU-145 prostate; more than 100 µM in the test with HCC-2998 colon; more than 100 µM in the test with M14 melanoma; more than 100 µM in the test with MOLT-4 leukemia; 15.3 µM in the test with NCI-H522 lung; more than 100 µM with OVCAR-8 ovarian. Besides, the TGI in the test with SW-620 colon and in the test on T-47D breast was more than 100 µM in each case.

In the case of `NC1=CC(=O)C(=O)c2ccccc21`, the GI50 with DU-145 prostate was 17.9 µM; in the test on HCC-2998 colon it was 43.9 µM; in the test on M14 melanoma it was 9.59 µM; in the test with MOLT-4 leukemia, 22.4 µM; in the test with NCI-H522 lung, 16.6 µM; in the test with OVCAR-8 ovarian, 14.8 µM. The GI50 in the test with SW-620 colon is 17.6 µM; in the test on T-47D breast, 14.2 µM. The TGI was 45.4 µM in the test with DU-145 prostate; more than 100 µM in the test with HCC-2998 colon; 21.3 µM in the test with M14 melanoma; more than 100 µM in the test with MOLT-4 leukemia; 38.2 µM in the test on NCI-H522 lung; 47.3 µM in the test on OVCAR-8 ovarian. Moreover, the TGI in the test on SW-620 colon came out at 38.4 µM; in the test with T-47D breast it was 46.2 µM.

For the compound `O=C(O)c1ccccc1C(=O)Nc1cc2c(cc1Br)-c1ccccc1C2=O`, the TGI in the test with DU-145 prostate was more than 100 µM; with HCC-2998 colon, 58 µM; in the test with M14 melanoma it was more than 100 µM; in the test on MOLT-4 leukemia, more than 100 µM; in the test with NCI-H522 lung, more than 100 µM; with OVCAR-8 ovarian, more than 100 µM. In addition, the TGI in the test with SW-620 colon and with T-47D breast was more than 100 µM throughout.

For `COC(=O)C[C@@H]1CC=CC(=O)/C1=C(O)/C=C/c1ccccc1`, the GI50 is 0.695 µM in the test with DU-145 prostate; 1.72 µM in the test with HCC-2998 colon; 0.578 µM with M14 melanoma; 1.68 µM in the test on MOLT-4 leukemia; 0.32 µM in the test with NCI-H522 lung; 0.602 µM in the test on OVCAR-8 ovarian. For the same compound, the GI50 in the test with SW-620 colon was 0.338 µM; in the test on T-47D breast, 0.549 µM. In addition, the TGI with DU-145 prostate is 1.96 µM; with HCC-2998 colon, 3.25 µM; in the test with M14 melanoma it was 1.69 µM; in the test on MOLT-4 leukemia it was 5.46 µM; in the test on NCI-H522 lung, 0.959 µM; in the test on OVCAR-8 ovarian it was 3.76 µM. For the same compound, the TGI in the test on SW-620 colon is 1.33 µM; with T-47D breast, 2.66 µM.

For `CCC1C[N+]2=C(c3cc(OC)c(OC)cc3CC2)c2c1cc1n2CCc2cc(OC)c(OC)cc2-1` (stereo not given), the GI50 in the test on DU-145 prostate was 5.37 µM; in the test with HCC-2998 colon, 2.55 µM; in the test with M14 melanoma it was 3.66 µM; with MOLT-4 leukemia, 3.97 µM; with NCI-H522 lung it was 1.81 µM; in the test with OVCAR-8 ovarian, 2.58 µM. Further, the GI50 is 4.25 µM with SW-620 colon and 0.746 µM in the test on T-47D breast. Further, the TGI with DU-145 prostate is 36.8 µM; with HCC-2998 colon it was 12.9 µM; in the test with M14 melanoma, 14.6 µM; in the test with MOLT-4 leukemia, 23.6 µM; in the test with NCI-H522 lung it was 13.9 µM; with OVCAR-8 ovarian, 82.1 µM. Moreover, the TGI turned out to be 16.8 µM in the test on SW-620 colon and 5.51 µM in the test with T-47D breast.
